Where a SMILES comes first, the peptide text is derived from it. Bridges are numbered along the chain shown (N, C = ends).
Assay: Determination of the protein binding (90% serum, 30 kDa filter, HPLC)
Format: in vitro ADME
Conditions: serum
Experimental: Protein binding assays were performed as follows. The purified peptides were mixed with 90% serum and centrifuged through a 30 kDa filter. The ultra-filtrate and the non filtrated serum samples were quantified by HPLC measurements and the protein binding was subsequently calculated.

Row | SMILES | fraction unbound
1 | CC(C)[C@@H]1NC(=O)[C@@H]2CSSC[C@H](NC(=O)[C@H](C(C)C)NC(=O)[C@H](CCCNC(=N)N)NC(=O)[C@H](C(C)C)NC(=O)[C@H](CCCCN)NC(=O)[C@H](CC(N)=O)NC(=O)[C@H](CCCNC(=N)N)NC(=O)[C@H](Cc3ccc(O)cc3)NC1=O)C(=O)N[C@@H](Cc1c[nH]cn1)C(=O)N[C@@H](CCCNC(=N)N)C(=O)N[C@@H](CCCNC(=N)N)C(=O)N[C@H](C(=O)N[C@@H](CC(N)=O)C(=O)O)CSSC[C@H](NC(=O)[C@H](Cc1ccccc1)NC(=O)CN)C(=O)N[C@@H](Cc1c[nH]c3ccccc13)C(=O)N[C@@H](CC(N)=O)C(=O)N[C@@H](C(C)C)C(=O)N2 [compound 227] (H-GFCWNVCVYRNKVRVCHRRCN-OH; disulfide 3-20, 7-16 (inferred); N-terminus and C-terminus assumed) | 0.2
2 | CC(C)[C@@H]1NC(=O)[C@@H]2CSSC[C@H](NC(=O)[C@H](C(C)C)NC(=O)[C@H](CCCNC(=N)N)NC(=O)[C@H](C(C)C)NC(=O)[C@H](CCCNC(=N)N)NC(=O)[C@H](CC(N)=O)NC(=O)[C@H](CCCNC(=N)N)NC(=O)[C@H](Cc3ccc(O)cc3)NC1=O)C(=O)N[C@@H](Cc1c[nH]cn1)C(=O)N[C@@H](CCCNC(=N)N)C(=O)N[C@@H](CCCNC(=N)N)C(=O)N[C@H](C(=O)N[C@@H](CC(N)=O)C(=O)O)CSSC[C@H](NC(=O)[C@H](Cc1ccccc1)NC(=O)CN)C(=O)N[C@@H](Cc1c[nH]c3ccccc13)C(=O)N[C@@H](CC(N)=O)C(=O)N[C@@H](C(C)C)C(=O)N2 [compound 228] (H-GFCWNVCVYRNRVRVCHRRCN-OH; disulfide 3-20, 7-16 (inferred); N-terminus and C-terminus assumed) | 0.14
3 | CC(C)[C@@H]1NC(=O)[C@@H]2CSSC[C@H](NC(=O)[C@H](C(C)C)NC(=O)[C@H](CCCNC(=N)N)NC(=O)[C@H](C(C)C)NC(=O)[C@H](Cc3ccc(O)cc3)NC(=O)[C@H](CC(N)=O)NC(=O)[C@H](CCCNC(=N)N)NC(=O)[C@H](Cc3ccc(O)cc3)NC1=O)C(=O)N[C@@H](Cc1c[nH]cn1)C(=O)N[C@@H](CCCNC(=N)N)C(=O)N[C@@H](CCCNC(=N)N)C(=O)N[C@H](C(=O)N[C@@H](CC(N)=O)C(=O)O)CSSC[C@H](NC(=O)[C@H](Cc1ccccc1)NC(=O)CN)C(=O)N[C@@H](Cc1c[nH]c3ccccc13)C(=O)N[C@@H](CC(N)=O)C(=O)N[C@@H](C(C)C)C(=O)N2 [compound 229] (H-GFCWNVCVYRNYVRVCHRRCN-OH; disulfide 3-20, 7-16 (inferred); N-terminus and C-terminus assumed) | 0.09
4 | CC(C)[C@@H]1NC(=O)CNC(=O)[C@H](C)NC(=O)[C@H](CCCNC(=N)N)NC(=O)[C@H](Cc2ccc(O)cc2)NC(=O)[C@H](C(C)C)NC(=O)[C@@H]2CSSC[C@H](NC(=O)[C@H](C(C)C)NC(=O)[C@H](CCCNC(=N)N)NC1=O)C(=O)N[C@@H](Cc1c[nH]cn1)C(=O)N[C@@H](CCCNC(=N)N)C(=O)N[C@@H](CCCNC(=N)N)C(=O)N[C@H](C(=O)N[C@@H](CC(N)=O)C(=O)O)CSSC[C@H](NC(=O)[C@H](Cc1ccccc1)NC(=O)CN)C(=O)N[C@@H](Cc1c[nH]c3ccccc13)C(=O)N[C@@H](CC(N)=O)C(=O)N[C@@H](C(C)C)C(=O)N2 [compound 230] (H-GFCWNVCVYRAGVRVCHRRCN-OH; disulfide 3-20, 7-16 (inferred); N-terminus and C-terminus assumed) | 0.29
5 | CC(C)[C@@H]1NC(=O)CNC(=O)CNC(=O)[C@H](CCCNC(=N)N)NC(=O)[C@H](Cc2ccc(O)cc2)NC(=O)[C@H](C(C)C)NC(=O)[C@@H]2CSSC[C@H](NC(=O)[C@H](C(C)C)NC(=O)[C@H](CCCNC(=N)N)NC1=O)C(=O)N[C@@H](Cc1c[nH]cn1)C(=O)N[C@@H](CCCNC(=N)N)C(=O)N[C@@H](CCCNC(=N)N)C(=O)N[C@H](C(=O)N[C@@H](CC(N)=O)C(=O)O)CSSC[C@H](NC(=O)[C@H](Cc1ccccc1)NC(=O)CN)C(=O)N[C@@H](Cc1c[nH]c3ccccc13)C(=O)N[C@@H](CC(N)=O)C(=O)N[C@@H](C(C)C)C(=O)N2 [compound 231] (H-GFCWNVCVYRGGVRVCHRRCN-OH; disulfide 3-20, 7-16 (inferred); N-terminus and C-terminus assumed) | 0.34
6 | CC(C)[C@@H]1NC(=O)CNC(=O)[C@H](Cc2c[nH]cn2)NC(=O)[C@H](CCCNC(=N)N)NC(=O)[C@H](Cc2ccc(O)cc2)NC(=O)[C@H](C(C)C)NC(=O)[C@@H]2CSSC[C@H](NC(=O)[C@H](C(C)C)NC(=O)[C@H](CCCNC(=N)N)NC1=O)C(=O)N[C@@H](Cc1c[nH]cn1)C(=O)N[C@@H](CCCNC(=N)N)C(=O)N[C@@H](CCCNC(=N)N)C(=O)N[C@H](C(=O)N[C@@H](CC(N)=O)C(=O)O)CSSC[C@H](NC(=O)[C@H](Cc1ccccc1)NC(=O)CN)C(=O)N[C@@H](Cc1c[nH]c3ccccc13)C(=O)N[C@@H](CC(N)=O)C(=O)N[C@@H](C(C)C)C(=O)N2 [compound 232] (H-GFCWNVCVYRHGVRVCHRRCN-OH; disulfide 3-20, 7-16 (inferred); N-terminus and C-terminus assumed) | 0.15
7 | CC(C)[C@@H]1NC(=O)CNC(=O)[C@H](CCC(N)=O)NC(=O)[C@H](CCCNC(=N)N)NC(=O)[C@H](Cc2ccc(O)cc2)NC(=O)[C@H](C(C)C)NC(=O)[C@@H]2CSSC[C@H](NC(=O)[C@H](C(C)C)NC(=O)[C@H](CCCNC(=N)N)NC1=O)C(=O)N[C@@H](Cc1c[nH]cn1)C(=O)N[C@@H](CCCNC(=N)N)C(=O)N[C@@H](CCCNC(=N)N)C(=O)N[C@H](C(=O)N[C@@H](CC(N)=O)C(=O)O)CSSC[C@H](NC(=O)[C@H](Cc1ccccc1)NC(=O)CN)C(=O)N[C@@H](Cc1c[nH]c3ccccc13)C(=O)N[C@@H](CC(N)=O)C(=O)N[C@@H](C(C)C)C(=O)N2 [compound 233] (H-GFCWNVCVYRQGVRVCHRRCN-OH; disulfide 3-20, 7-16 (inferred); N-terminus and C-terminus assumed) | 0.22
8 | CC(C)[C@@H]1NC(=O)CNC(=O)[C@H](CCCNC(=N)N)NC(=O)[C@H](CCCNC(=N)N)NC(=O)[C@H](Cc2ccc(O)cc2)NC(=O)[C@H](C(C)C)NC(=O)[C@@H]2CSSC[C@H](NC(=O)[C@H](C(C)C)NC(=O)[C@H](CCCNC(=N)N)NC1=O)C(=O)N[C@@H](Cc1c[nH]cn1)C(=O)N[C@@H](CCCNC(=N)N)C(=O)N[C@@H](CCCNC(=N)N)C(=O)N[C@H](C(=O)N[C@@H](CC(N)=O)C(=O)O)CSSC[C@H](NC(=O)[C@H](Cc1ccccc1)NC(=O)CN)C(=O)N[C@@H](Cc1c[nH]c3ccccc13)C(=O)N[C@@H](CC(N)=O)C(=O)N[C@@H](C(C)C)C(=O)N2 [compound 234] (H-GFCWNVCVYRRGVRVCHRRCN-OH; disulfide 3-20, 7-16 (inferred); N-terminus and C-terminus assumed) | 0.14
9 | CC(C)[C@@H]1NC(=O)[C@H](CCCNC(=N)N)NC(=O)[C@H](C)NC(=O)CNC(=O)[C@H](CC(N)=O)NC(=O)[C@H](CCCNC(=N)N)NC(=O)[C@H](Cc2ccc(O)cc2)NC(=O)[C@H](C(C)C)NC(=O)[C@@H]2CSSC[C@H](NC1=O)C(=O)N[C@@H](Cc1c[nH]cn1)C(=O)N[C@@H](CCCNC(=N)N)C(=O)N[C@@H](CCCNC(=N)N)C(=O)N[C@H](C(=O)N[C@@H](CC(N)=O)C(=O)O)CSSC[C@H](NC(=O)[C@H](Cc1ccccc1)NC(=O)CN)C(=O)N[C@@H](Cc1c[nH]c3ccccc13)C(=O)N[C@@H](CC(N)=O)C(=O)N[C@@H](C(C)C)C(=O)N2 [compound 235] (H-GFCWNVCVYRNGARVCHRRCN-OH; disulfide 3-20, 7-16 (inferred); N-terminus and C-terminus assumed) | 0.36
10 | CC(C)[C@@H]1NC(=O)[C@H](CCCNC(=N)N)NC(=O)[C@H](Cc2c[nH]cn2)NC(=O)CNC(=O)[C@H](CC(N)=O)NC(=O)[C@H](CCCNC(=N)N)NC(=O)[C@H](Cc2ccc(O)cc2)NC(=O)[C@H](C(C)C)NC(=O)[C@@H]2CSSC[C@H](NC1=O)C(=O)N[C@@H](Cc1c[nH]cn1)C(=O)N[C@@H](CCCNC(=N)N)C(=O)N[C@@H](CCCNC(=N)N)C(=O)N[C@H](C(=O)N[C@@H](CC(N)=O)C(=O)O)CSSC[C@H](NC(=O)[C@H](Cc1ccccc1)NC(=O)CN)C(=O)N[C@@H](Cc1c[nH]c3ccccc13)C(=O)N[C@@H](CC(N)=O)C(=O)N[C@@H](C(C)C)C(=O)N2 [compound 237] (H-GFCWNVCVYRNGHRVCHRRCN-OH; disulfide 3-20, 7-16 (inferred); N-terminus and C-terminus assumed) | 0.6
11 | CC(C)[C@@H]1NC(=O)[C@H](CCCNC(=N)N)NC(=O)[C@H](CCCNC(=N)N)NC(=O)CNC(=O)[C@H](CC(N)=O)NC(=O)[C@H](CCCNC(=N)N)NC(=O)[C@H](Cc2ccc(O)cc2)NC(=O)[C@H](C(C)C)NC(=O)[C@@H]2CSSC[C@H](NC1=O)C(=O)N[C@@H](Cc1c[nH]cn1)C(=O)N[C@@H](CCCNC(=N)N)C(=O)N[C@@H](CCCNC(=N)N)C(=O)N[C@H](C(=O)N[C@@H](CC(N)=O)C(=O)O)CSSC[C@H](NC(=O)[C@H](Cc1ccccc1)NC(=O)CN)C(=O)N[C@@H](Cc1c[nH]c3ccccc13)C(=O)N[C@@H](CC(N)=O)C(=O)N[C@@H](C(C)C)C(=O)N2 [compound 239] (H-GFCWNVCVYRNGRRVCHRRCN-OH; disulfide 3-20, 7-16 (inferred); N-terminus and C-terminus assumed) | 0.35
12 | CC(C)[C@@H]1NC(=O)[C@H](CCCNC(=N)N)NC(=O)[C@H](Cc2ccc(O)cc2)NC(=O)CNC(=O)[C@H](CC(N)=O)NC(=O)[C@H](CCCNC(=N)N)NC(=O)[C@H](Cc2ccc(O)cc2)NC(=O)[C@H](C(C)C)NC(=O)[C@@H]2CSSC[C@H](NC1=O)C(=O)N[C@@H](Cc1c[nH]cn1)C(=O)N[C@@H](CCCNC(=N)N)C(=O)N[C@@H](CCCNC(=N)N)C(=O)N[C@H](C(=O)N[C@@H](CC(N)=O)C(=O)O)CSSC[C@H](NC(=O)[C@H](Cc1ccccc1)NC(=O)CN)C(=O)N[C@@H](Cc1c[nH]c3ccccc13)C(=O)N[C@@H](CC(N)=O)C(=O)N[C@@H](C(C)C)C(=O)N2 [compound 242] (H-GFCWNVCVYRNGYRVCHRRCN-OH; disulfide 3-20, 7-16 (inferred); N-terminus and C-terminus assumed) | 0.17
